From EP0970046B1, “N-HYDROXY-2-(ALKYL, ARYL, OR HETEROARYL SULFANYL, SULFINYL OR SULFONYL)-3-SUBSTITUTED ALKYL, ARYL OR HETEROARYLAMIDES AS MATRIX METALLOPROTEINASE INHIBITORS” (Wyeth Holdings Corporation, priority 1997, dated 1998)

How the values were obtained:
Format in all cases: biochemical
MMP 13 = MMP 13 (Homo sapiens, UniProt P45452); test: MMP 13 inhibition (IC50 / manual assay; method not described); conditions: for IC50: read-out: MMP 13 IC 50; for inhibition at 1 µM: read-out: MMP 13 % inhibition at 1 micromolar
TACE = target: T1, TACE (Homo sapiens, UniProt P78536); test: Procedure for Measuring TACE Inhibition; conditions: for inhibition at 1 µM: read-out: TACE % inhibition at 1 micromolar; for IC50: read-out: TACE IC 50
T1 construct: purchased Immunex
Method in brief: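 Single-concentration screen: test compound at 1 µM final, 10-min room-temperature preincubation with 1 µg/mL protease in Tris pH 7.4 buffer containing glycerol. Initial rate from linear fluorescence increase (340/420 nm) over 10 min after adding 100 µM peptidyl substrate; significance versus control rate by Dunnett's test.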

MMP 1 = target: T2, MMP 1 (Homo sapiens, UniProt P03956); test: In Vitro Collagenase Assay; conditions: human recombinant fibroblast collagenase; for IC50: read-out: MMP 1 IC 50; for inhibition at 1 µM: read-out: MMP 1 % inhibition at 1 micromolar, 1 micromolar
T2 construct: human recombinant fibroblast collagenase (truncated, mw= 18,828, WAR, Radnor)
T2 sequence (P03956 100-269 limits assumed): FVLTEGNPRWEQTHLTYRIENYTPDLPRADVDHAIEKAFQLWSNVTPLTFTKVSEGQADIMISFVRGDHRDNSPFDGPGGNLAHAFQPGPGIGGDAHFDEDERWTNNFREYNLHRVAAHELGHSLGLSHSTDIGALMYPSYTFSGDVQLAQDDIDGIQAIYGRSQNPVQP
Method in brief: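 Collagenase (5 nM final) cleaves the quenched fluorogenic peptide Dnp-Pro-Cha-Gly-Cys(Me)-His-Ala-Lys(NMa)-NH2 (10 µM final) in HCBC buffer. Solvent is below 1.0%, and the reaction is started with substrate. Rate is taken from the fluorescence slope (r^2 >0.85), and drug-treated rates are compared with control by Dunnett's test.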

MMP 9 = target: T3, MMP 9 (Homo sapiens, UniProt P14780); test: In Vitro Gelatinase Assay; conditions: human neutrophil gelatinase B; for IC50: read-out: MMP 9 IC 50; for inhibition at 1 µM: read-out: MMP 9 % inhibition at 1 micromolar, 1 micromolar
T3 construct: from tissue; host or cells: human neutrophils
Method in brief: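 Human MMP-9 cleaves thiopeptide Ac-Pro-Leu-Gly(2-mercapto-4-methyl-pentanoyl)-Leu-Gly-OEt, with the released thiol reacting with DTNB. Substrate and DTNB were diluted together to 1 mM in 50 mM HEPES pH 7.5, 5 mM CaCl2. Rate came from the OD405 slope (r^2 >0.85), compared with control by Dunnett's test.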

T1 sequence (P78536 215-824): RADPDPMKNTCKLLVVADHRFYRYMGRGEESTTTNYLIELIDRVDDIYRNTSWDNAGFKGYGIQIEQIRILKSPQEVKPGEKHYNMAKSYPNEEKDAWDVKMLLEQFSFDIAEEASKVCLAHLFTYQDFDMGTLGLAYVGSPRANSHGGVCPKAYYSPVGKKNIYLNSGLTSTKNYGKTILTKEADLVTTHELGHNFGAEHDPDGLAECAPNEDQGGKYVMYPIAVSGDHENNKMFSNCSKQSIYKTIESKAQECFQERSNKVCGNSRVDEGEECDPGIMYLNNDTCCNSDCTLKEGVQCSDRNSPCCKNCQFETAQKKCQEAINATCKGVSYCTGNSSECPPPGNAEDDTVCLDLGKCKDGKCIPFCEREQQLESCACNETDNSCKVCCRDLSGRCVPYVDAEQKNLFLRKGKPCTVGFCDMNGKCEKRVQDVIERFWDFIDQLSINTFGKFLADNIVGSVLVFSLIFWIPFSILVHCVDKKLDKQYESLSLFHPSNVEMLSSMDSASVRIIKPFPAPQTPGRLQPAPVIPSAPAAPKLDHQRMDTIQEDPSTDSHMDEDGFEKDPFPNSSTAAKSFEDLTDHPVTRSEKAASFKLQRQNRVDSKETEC
T3 sequence (P14780 94-707): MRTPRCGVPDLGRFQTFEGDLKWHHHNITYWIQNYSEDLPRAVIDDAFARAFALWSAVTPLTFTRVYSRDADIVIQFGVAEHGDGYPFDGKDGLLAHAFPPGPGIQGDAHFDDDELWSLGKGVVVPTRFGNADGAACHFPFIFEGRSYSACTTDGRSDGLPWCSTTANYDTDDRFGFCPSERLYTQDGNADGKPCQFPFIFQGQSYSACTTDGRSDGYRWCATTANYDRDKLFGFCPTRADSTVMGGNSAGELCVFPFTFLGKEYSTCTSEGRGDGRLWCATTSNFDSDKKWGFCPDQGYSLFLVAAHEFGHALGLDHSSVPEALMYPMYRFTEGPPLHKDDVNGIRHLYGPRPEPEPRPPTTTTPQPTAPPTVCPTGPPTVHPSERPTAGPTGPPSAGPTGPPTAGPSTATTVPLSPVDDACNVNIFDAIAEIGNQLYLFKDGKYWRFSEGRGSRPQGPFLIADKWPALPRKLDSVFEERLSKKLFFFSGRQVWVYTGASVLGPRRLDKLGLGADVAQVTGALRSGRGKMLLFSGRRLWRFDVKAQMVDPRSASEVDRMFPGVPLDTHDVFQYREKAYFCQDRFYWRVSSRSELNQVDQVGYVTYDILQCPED

IC50 (MMP 13) [nM]	inhibition at 1 µM (TACE) [%]	IC50 (MMP 1) [nM]	IC50 (MMP 9) [nM]	IC50 (TACE) [nM]	inhibition at 1 µM (MMP 13) [%]	inhibition at 1 µM (MMP 1) [%]	inhibition at 1 µM (MMP 9) [%]	SMILES
13	42.2	1000	63					COc1ccc(S(=O)(=O)C(Cc2cccnc2)(CC2CCCCC2)C(=O)NO)cc1 (stereo not drawn) [Example 65, 3-Cyclohexyl-N-hydroxy-2-(4-methoxy-benzenesulfonyl)-2-pyridin-3-ylmethyl-propionamide]
2.5		629	26.8	293				COc1ccc(S(=O)(=O)C2(C(=O)NO)CCN(CCOc3ccccc3)CC2)cc1 [Example 107, 4-(4-methoxy-benzenesulfonyl)-1-(2-phenoxy-ethyl)-piperidine-4-carboxylic acid hydroxyamide]
	55.1				5.8	48.3	1.7	CCCCCCC(Sc1ccc(F)cc1)C(=O)NO (stereo not drawn) [Example 38, 2-(4-Fluoro-phenylsulfanyl)-octanoic acid hydroxyamide]
15.7		3760	154	228				CCCCC[C@@H](C(=O)NO)[S@@+]([O-])c1ccc(OC)cc1 (stereo in doubt) [Example 81b, 2S*-(4-methoxy-phenyl-R*- sulfinyl)-heptanoic acid hydroxyamide]
	46.6				55.5	66.1	34.7	Cc1occc1S(=O)(=O)C(C)(Cc1ccccc1)C(=O)NO (stereo not drawn) [Example 43, 2-Methyl-2-(2-methyl-furan-3-sulfonyl)-3-phenyl-propionic acid hydroxamide]
4		285	17	137				COc1ccc(S(=O)(=O)C(C)(CC=C(C)CCC=C(C)C)C(=O)NO)cc1 (stereo not drawn) [Example 15, 2-(4-methoxy-benzenesulfonyl)-2,5,9-trimethyl-deca-4,8-dienoic acid hydroxyamide]
